Values quoted from earlier work in US20120121653A1, “Novel mometasone compositions and methods of making and using the same” (Elan Pharma International Limited, priority 2005, published 2012).
Read-outs that look alike come from different tables or passages of the source.

Assays:
[1] = not given; remark: listed apart in the source

partition coefficient between octanol and water: greater than 5000
solubility ([1]; in acetone): soluble
solubility ([1]; in chloroform): soluble
solubility ([1]; in ethanol): slightly soluble
solubility ([1]; in isopropanol): slightly soluble
solubility ([1]; in methanol): slightly soluble
solubility ([1]; in tetrahydrofuran): freely soluble
solubility ([1]; in water): practically insoluble
SMILES: C[C@@H]1C[C@H]2[C@@H]3CCC4=CC(=O)C=C[C@]4(C)[C@@]3(Cl)[C@@H](O)C[C@]2(C)[C@@]1(OC(=O)c1ccco1)C(=O)CCl [Mometasone furoate monohydrate, 9,21-Dichloro-11, β,17-di-hydroxy-16^α-methylpregna-1,4-diene-3 ,20-done 17-(2 furoate)]
